Data reported in publication PMC10377566 (European journal of medicinal chemistry, 2022).
In brackets after ≈: the same amount, converted by molar mass. Several values for one entry are separate records, joined by “and”; a condition that tells them apart may be missing. Equal values may be shown once.

Tests used:
[1] = Metabolic stability in mouse liver microsomes; type: in vitro ADME, mouse (CD-1 Mouse)
[2] = test system: VIM-expressing sarcoma cell lines HT-1080, RD, GCT; type: cell-based; details: for improvement in potency: VIM-expressing sarcoma cell lines, compared to FiVe1
[3] = test system: HT-1080 cells; experiment: Cell proliferation assay; type: cell-based; details: for improvement in selectivity: cell type selectivity (vs MCF-7), compared to FiVe1; for SI (HT-1080 vs MCF-7): selectivity index, ratio of IC50 values HT-1080 and MCF-7
[4] = test system: vimentin (VIM) Ser56 phosphorylation; experiment: Western blot of VIM Ser56 phosphorylation in HT-1080, RD and GCT sarcoma cells; type: cell-based; details: 24 h, HT-1080, RD and GCT cells
[5] = Pharmacokinetic study in mouse; type: in vivo
[6] = HPLC-based kinetic solubility in DPBS; type: physicochemical; details: for improvement in solubility: compared to FiVe1, DPBS
[7] = Metabolite identification in incubations with mouse hepatocytes; type: in vitro ADME; details: FiVe1 incubated with mouse hepatocytes, LC-MS/MS, peak area λ = 252–420 nm
[8] = biological target: panel of ~100 kinases; details: concentrations up to 10 μM; cited from earlier work
[9] = test system: VIM-expressing mesenchymal cancer cell lines; details: anti-proliferative effects compared with cells that lack VIM expression; cited from earlier work

## 3-(3-chloro-5-(4-(8-chlorocinnolin-4-yl)piperazin-1-yl)phenoxy)propane-1,2-diol [Compound 11e]
[1]; mouse liver microsomes
  T1/2: 42.7 min
[1]; mouse liver microsomes, 60 min
  Remaining (T= 60 min): 35.7%
[1]; mouse, microsomes
  CLint(mic): 32.5 µL/min/mg

## Clc1cc(Cl)cc(N2CCN(c3cnnc4c(Cl)cccc34)CC2)c1 [Compound 4a, 8-chloro-4-(4-(3,5-dichlorophenyl)piperazin-1-yl)cinnoline]
[2]
  improvement in potency: ~ 4 fold

## N#Cc1cc(Cl)cc(N2CCN(c3cnnc4c(Cl)cccc34)CC2)c1 [Compound 4b, 3-chloro-5-(4-(8-chlorocinnolin-4-yl)piperazin-1-yl)benzonitrile]
[2]
  improvement in potency: ~ 4 fold

## COc1cc(OC)cc(N2CCN(c3cnnc4c(Cl)cccc34)CC2)c1 [Compound 4c, 8-chloro-4-(4-(3,5-dimethoxyphenyl)piperazin-1-yl)cinnoline]
[2]
  improvement in potency: > 20 fold
[3]
  improvement in selectivity: > 15 fold

## COc1cccc(N2CCN(c3cnnc4c(Cl)cccc34)CC2)c1 [Compound 4d, 8-chloro-4-(4-(3-methoxyphenyl)piperazin-1-yl)cinnoline]
[2]
  improvement in potency: > 2 fold
[3]
  improvement in selectivity: > 2 fold

## COc1cc(Cl)cc(N2CCN(c3cnnc4c(Cl)cccc34)CC2)c1 [Compound 4e, 8-chloro-4-(4-(3-chloro-5-methoxyphenyl)piperazin-1-yl)cinnoline]
[2]
  improvement in potency: > 20 fold
[3]
  improvement in selectivity: > 10 fold and 19 fold and > 15 fold
[4]
  VIM Ser56 phosphorylation (Western immunoblot): induce VIM Ser56 phosphorylation at 10-fold lower concentration (100 nM)
[5]; ip 1 mg/kg
  Tlast: 4 h
[5]; oral, compared to FiVe1, assuming dose proportional absorption
  improvement in bioavailability: ~ 4 fold

## Clc1cc(N2CCCC2)cc(N2CCN(c3cnnc4c(Cl)cccc34)CC2)c1 [Compound 4f, 8-chloro-4-(4-(3-chloro-5-(pyrrolidin-1-yl)phenyl)piperazin-1-yl)cinnoline]
[2]
  inhibition of mesenchymal cancer cell growth (in words): total loss in activity

## Oc1cc(Cl)cc(N2CCN(c3cnnc4c(Cl)cccc34)CC2)c1 [Compound 4g, 3-chloro-5-(4-(8-chlorocinnolin-4-yl)piperazin-1-yl)phenol]
[2]
  improvement in potency: > 20 fold
[3]
  improvement in selectivity: > 10 fold

## Nc1cc(Cl)cc(N2CCN(c3cnnc4c(Cl)cccc34)CC2)c1 [Compound 4i, 3-chloro-5-(4-(8-chlorocinnolin-4-yl)piperazin-1-yl)aniline]
[2]
  improvement in potency: ~ 2 fold
[3]
  improvement in selectivity: ~ 2 fold

## CC(=O)Nc1cc(Cl)cc(N2CCN(c3cnnc4c(Cl)cccc34)CC2)c1 [Compound 4j, N-(3-chloro-5-(4-(8-chlorocinnolin-4-yl)piperazin-1-yl)phenyl)acetamide]
[2]; Homo sapiens, HT-1080, read-out: IC50 values
  IC50: ~10 µM

## C[C@H]1CN(c2cnnc3c(Cl)cccc23)CCN1c1cc(Cl)cc(Cl)c1 [Compound 7a, (S)-8-chloro-4-(4-(3,5-dichlorophenyl)-3-methylpiperazin-1-yl)cinnoline]
[2]; compared with its analog 4a
  loss in antiproliferative potency: ~ 2 fold

## Clc1cccc(N2CCN(c3ccnc4c(Cl)cccc34)CC2)c1 [Compound 10d, 8-chloro-4-(4-(3-chlorophenyl)piperazin-1-yl)quinoline]
[4]
  VIM Ser56 phosphorylation (Western immunoblot): inactive

## NCCOc1cc(Cl)cc(N2CCN(c3cnnc4c(Cl)cccc34)CC2)c1 [Compound 11a, 2-(3-chloro-5-(4-(8-chlorocinnolin-4-yl)piperazin-1-yl)phenoxy)ethan-1-amine]
[3]
  SI (HT-1080 vs MCF-7): >5
[6]; DPBS, pH 7.4
  solubility at 16 h: 68 µM (≈ 28.4 µg/mL)
[6]
  improvement in solubility: > 40 fold

## CN(C)CCOc1cc(Cl)cc(N2CCN(c3cnnc4c(Cl)cccc34)CC2)c1 [Compound 11b, 2-(3-chloro-5-(4-(8-chlorocinnolin-4-yl)piperazin-1-yl)phenoxy)-N,N-dimethylethan-1-amine]
[6]
  improvement in solubility: > 40 fold

## CN(C)CCCOc1cc(Cl)cc(N2CCN(c3cnnc4c(Cl)cccc34)CC2)c1 [Compound 11c, 3-(3-chloro-5-(4-(8-chlorocinnolin-4-yl)piperazin-1-yl)phenoxy)-N,N-dimethylpropan-1-amine]
[6]
  improvement in solubility: > 40 fold

## OCCOc1cc(Cl)cc(N2CCN(c3cnnc4c(Cl)cccc34)CC2)c1 [Compound 11d, 2-(3-chloro-5-(4-(8-chlorocinnolin-4-yl)piperazin-1-yl)phenoxy)ethan-1-ol]
[2]
  improvement in potency: > 3 fold
[3]
  SI (HT-1080 vs MCF-7): >40

## COCCOc1cc(Cl)cc(N2CCN(c3cnnc4c(Cl)cccc34)CC2)c1 [Compound 11f, 8-chloro-4-(4-(3-chloro-5-(2-methoxyethoxy)phenyl)piperazin-1-yl)cinnoline]
[3]
  SI (HT-1080 vs MCF-7): >12

## COC(COc1cc(Cl)cc(N2CCN(c3cnnc4c(Cl)cccc34)CC2)c1)OC [Compound 11g, 8-chloro-4-(4-(3-chloro-5-(2,2-dimethoxyethoxy)phenyl)piperazin-1-yl)cinnoline]
[3]; Homo sapiens, HT-1080, 72 h, read-out: IC50 HT-1080
  IC50: 13.6 ± 1.18 µM
[3]
  SI (HT-1080 vs MCF-7): >2

## COC(=O)CCOc1cc(Cl)cc(N2CCN(c3cnnc4c(Cl)cccc34)CC2)c1 [Compound 11j, methyl 3-(3-chloro-5-(4-(8-chlorocinnolin-4-yl)piperazin-1-yl)phenoxy)propanoate]
[3]
  SI (HT-1080 vs MCF-7): >20

## O=C(O)CCOc1cc(Cl)cc(N2CCN(c3cnnc4c(Cl)cccc34)CC2)c1 [Compound 11k, 3-(3-chloro-5-(4-(8-chlorocinnolin-4-yl)piperazin-1-yl)phenoxy)propanoic acid]
[3]
  SI (HT-1080 vs MCF-7): >13

## Clc1cccc(N2CCN(c3cnnc4c(Cl)cccc34)CC2)c1 [FiVe1]
[7]
  % Peak Area: 6%
[8]
  kinase inhibition: not found to be an inhibitor of any cell cycle or cytokinesis-related kinase
[9]
  cell-based therapeutic index: > 10
[4]
  VIM Ser56 phosphorylation (Western immunoblot): induced Ser56 phosphorylation at 1 μM but not at 100 nM
[5]; po 25 mg/kg
  Tlast: 18 h
